Legend:
Assay type in all cases: cell-based
[1] = tested on: Escherichia coli NIH JC-2; experiment: MIC, standard method of Japanese Chemotherapy Academy; details: Objected Strain 3: Escherichia coli NIH JC-2
Procedure: (§1) 1. Minimum Inhibitory Concentration (MIC) was measured in accordance with the standard method of Japanese Chemotherapy Academy (Chemotherapy, 29: 76-79, 1981).

[2] = tested on: Staphylococcus aureus 209PJC; experiment: as above; details: Strain 11: Staphylococcus aureus 209PJC
Procedure: as §1
(§2) And MIC of the compounds of Example 3, 36, 8, 14, 17, 21, 41 and 45 were measured.

[3] = tested on: Bacillus subtilis ATCC 6633; experiment: as above; details: for MIC against bacillus subcillus ATCC 6633: standard method of Japanese Chemotherapy Academy
Procedure: as §1, §2

[4] = tested on: Staphylococcus aureus No. 2 (MRSA); experiment: as above; details: Strain 14: Staphylococcus aureus No. 2 (MRSA)
Procedure: as §1, §2

[5] = tested on: Helicobacter pylori ATCC 43629; experiment: MIC, agar plating dilution (standard method of Japanese Chemotherapy Academy); details: Objected Strain 2: Helicobacter pylori ATCC 43629
Procedure: (§3) 1. Minimum Inhibitory Concentration (MIC) was measured in accordance with the standard method of Japanese Chemotherapy Academy (Chemotherapy, 29: 76-79, 1981). Sensitivity was measured with an agar plating dilution using Brain-Heart Infusion agar (Difco Co.) which was added 0.1% of cyclodextrin. […] of the solutions of the compounds which were obtained in examples of the present invention was prepared by dissolving in dimethylsulfoxide. […] Each of 1 ml of those prepared solutions was dispensed in share, after sterilization, 9 ml of sensitivity measuring medium which is kept at 50° C. was added to each, and they were sufficiently mixed. The mixture was used as a plate for measuring sensitivity. Brain Heart Infusion agar medium (Difco Co.), which was added 0.1% of cyclodextrin, was used as bacteria growing medium, and was cultured under microair at 37° C. for three days, and the number of bacteria thereof was adjusted to about 106/ml. This was used as a bacterial solution for inoculation. The medium was painted in each square about 2 cm with nichromic line loop. The medium was cultured under microair for three days at 37° C.

[6] = tested on: Helicobacter pylori ATCC 43504; experiment: as above; details: Objected Strain 1: Helicobacter pylori ATCC 43504
Procedure: as §3

[7] = tested on: Helicobacter pylori No. 3; experiment: MIC, agar plating dilution, clinical segregation strain; details: Strain 6: Helicobacter pylori No. 3
Procedure: (§4) Minimum Inhibitory Concentration (MIC) was measured in accordance with the standard method of Japanese Chemotherapy Academy (Chemotherapy, 29: 76-79, 1981). Sensitivity was measured with an agar plating dilution using Brain-Heart Infusion agar (Difco Co.) which was added 0.1% of cyclodextrin. […] of the solutions of the compounds which were obtained in examples of the present invention was prepared by dissolving in dimethylsulfoxide. […] Each of 1 ml of those prepared solutions was dispensed in share, after sterilization, 9 ml of sensitivity measuring medium which is kept at 50° C. was added to each, and they were sufficiently mixed. The mixture was used as a plate for measuring sensitivity. Brain Heart Infusion agar medium (Difco Co.), which was added 0.1% of cyclodextrin, was used as bacteria growing medium, and was cultured under microair at 37° C. for three days, and the number of bacteria thereof was adjusted to about 106/ml. This was used as a bacterial solution for inoculation. The medium was painted in each square about 2 cm with nichromic line loop. The medium was cultured under microair for three days at 37° C. […] The each result is shown at Table 4.

[8] = tested on: Helicobacter pylori No. 2; experiment: as above; details: Strain 5: Helicobacter pylori No. 2
Procedure: as §4

[9] = tested on: Helicobacter pylori No. 4; experiment: as above; details: Strain 7: Helicobacter pylori No. 4
Procedure: as §4

[10] = tested on: Helicobacter pylori No. 1; experiment: as above; details: Strain 4: Helicobacter pylori No. 1
Procedure: as §4

SMILES	MIC [1]	MIC [2]	MIC ([3]; Strain 13: Bacillus subtilis ATCC 6633)	MIC [4]	MIC [5]	MIC [6]	MIC against bacillus subcillus ATCC 6633 [3]	MIC [7]	MIC [8]	MIC [9]	MIC [10]
CCOC(=O)c1ccc(Oc2ccc(OC(=O)[C@H]3CC[C@H](CNC(=N)N)CC3)cc2)cc1.Cl [Example 36, trans-4-guanidinomethyl cyclohexane carboxylic acid[4(4-ethoxycarbonylphenyloxy)phenylester].hydrochloride]	>25 µg/mL	6.25 µg/mL	25 µg/mL	6.25 µg/mL	6.25 µg/mL	6.25 µg/mL	–	–	–	–	–
Cl.N=C(N)NC[C@H]1CC[C@H](C(=O)Oc2ccc(-c3ccc(C(=O)OCc4ccccc4F)cc3)cc2)CC1 [Example 19, trans-4-guanidinomethyl cyclohexane carboxylic acid [4-[4-(2-fluorobenzyloxycarbonyl)phenyl]phenylester].hydrochloride]	>25 µg/mL	–	–	–	0.39 µg/mL	0.39 µg/mL	> 25 µg/mL	0.20 µg/mL	0.78 µg/mL	0.39 µg/mL	0.20 µg/mL
Cl.N=C(N)NC[C@H]1CC[C@H](C(=O)Oc2ccc(-c3ccc(C(=O)OCC4CCCCC4)cc3)cc2)CC1 [Example 23, trans-4-guanidinomethyl cyclohexane carboxylic acid [4-(4-cyclohexylmethyloxy carbonylphenyl)phenylester].hydrochloride]	>25 µg/mL	–	–	–	0.39 µg/mL	0.20 µg/mL	25 µg/mL	0.20 µg/mL	0.39 µg/mL	0.39 µg/mL	0.20 µg/mL
Cc1ccc(COC(=O)c2ccc(-c3ccc(OC(=O)[C@H]4CC[C@H](CNC(=N)N)CC4)cc3)cc2)c(C)c1.Cl [Example 25, trans-4-guanidinomethyl cyclohexane carboxylic acid[4-[4-(2,4-dimethylbenzyloxycarbonyl)phenyl]phenylester].hydrochloride]	>25 µg/mL	–	–	–	0.78 µg/mL	0.39 µg/mL	> 25 µg/mL	0.20 µg/mL	0.39 µg/mL	0.39 µg/mL	0.39 µg/mL
COc1ccc(COC(=O)c2ccc(-c3ccc(OC(=O)[C@H]4CC[C@H](CNC(=N)N)CC4)cc3)cc2)cc1.Cl [Example 18, trans-4-guanidinomethyl cyclohexane carboxylic acid [4-[4-(4-methoxybenzyloxy carbonyl)phenyl]phenylester].hydrochloride]	>25 µg/mL	–	–	–	0.78 µg/mL	0.78 µg/mL	25 µg/mL	0.20 µg/mL	0.78 µg/mL	0.39 µg/mL	0.20 µg/mL
Cl.N=C(N)NC[C@H]1CC[C@H](C(=O)Oc2ccc(-c3ccc(C(=O)OCCc4ccccc4)cc3)cc2)CC1 [Example 26, trans-4-guanidinomethyl cyclohexane carboxylic acid[4-[4-(2-phenylethyloxycarbonyl)phenyl]phenylester].hydrochloride]	>25 µg/mL	–	–	–	0.78 µg/mL	0.39 µg/mL	> 25 µg/mL	0.10 µg/mL	0.39 µg/mL	0.20 µg/mL	0.20 µg/mL

— patent US6831190B1, “Guanidinomethyl cyclohexane carboxylic acid ester derivatives” (Teikoku Chemical Industries Co., Ltd., priority 1994, dated 2004)
